Experimental data taken from article PMC9611727, “Optimization of a Novel Mandelamide-Derived Pyrrolopyrimidine Series of PERK Inhibitors” (Pharmaceutics, 2022).

Columns and labels:
Type in all cases: in vitro ADME
[1] = Metabolic clearance in hepatocytes, rat; settings: male, Sprague Dawley, cryopreserved rat hepatocytes, read-out: Hepatocyte Clearance (t1/2 min) Rat
Method: Metabolic Clearance in Hepatocytes
Testosterone was obtained from Cerilliant (Round Rock, TX). 7-Hydroxycoumarin was obtained from Sigma-Aldrich (St.
Louis, MO). Ten-donor male pooled cryopreserved human hepatocytes, cryopreserved male Sprague Dawley rat hepatocytes, cryopreserved male ICR/CD-1 mouse hepatocytes, cryopreserved male beagle dog hepatocytes, In VitroGro HI Medium (Incubation), and InVitroGro HT Medium (Thawing) were obtained from Bioreclamation IVT (Baltimore, MD). All solvents were obtained from commercial sources and used without further purification.Test compound was prepared as a 1 mM stock solution in DMSO. A 2 µM solution of test compound and testosterone was prepared (7 - hydroxycoumarin was prepared at 20 µM) in In VitroGro HI Medium (Incubation). These solutions were placed in a sterile incubator set to maintain 37°C, 5% CO2, and 98% humidity to pre-warm. Cryopreserved hepatocytes were prepared at a concentration of 2 x 10^6 living cells/mL in incubation media and placed in the incubator to pre-warn. The compound solutions and hepatocyte mixtures were then combined at a ratio of 1:1 (v:v). The final volume of the reaction mixture was 750 µL, containing 1 µM test compound and 1 x 10^6 cells/mL. The reaction mixture was placed in the incubator on a plate shaker. After 0, 15, 30, 60, 90, and 120 minutes of incubation, 100 µL of reaction mixtures were removed from the incubation plate and mixed with 150 µL of ice-cold acetonitrile in a designated well of a 96-well crash plate. The 96-well crash plate was placed on ice for 15 min, and samples were centrifuged (3,600 rpm, 10 min, 4 °C) to precipitate protein.
The supernatants were diluted 1:1 (v/v) with water containing tolbutamide, (internal standard for positive and negative modes, respectively) in a 96-well shallow injection plate. This plate was sealed for LC-MS analysis. All measurements

[2] = Plasma protein binding (RED dialysis), mouse; settings: male, CD-1 (ICR), pH 7.4
Source text: (§1) Verapamil hydrochloride and tamoxifen were obtained from Sigma-Aldrich. […]
(§2) Pooled mixed gender human donor plasma, Sprague Dawley male rat plasma, CD-1 (ICR) male mouse plasma and male beagle dog plasma were obtained from Bioreclamation Inc. (Westbury, NY). Reusable Teflon base plate, RED Device inserts, and BupH Phosphate Buffered Saline packs (0.1 M sodium phosphate and 0.15 M sodium chloride when dissolved in 0.5 L water) were obtained from Thermo Scientific (Waltham, MA). Propranolol was obtained from Sigma-Aldrich (St. Louis, MO). All solvents were obtained from commercial sources and used without further purification.
(§3) Frozen plasma was thawed and the pH of plasma and BupH phosphate buffered saline was adjusted to 7.4 prior to dialysis. Into each well of a reusable Teflon 48-well base plate a RED insert was placed open end up. Ten microliters (10 µL) of the test compound (0.1 mM in acetonitrile/water, 1:1 v/v) was added to 990 µL of plasma to achieve 1 µM final concentration. The spiked plasma (200 µL) was added to the sample chamber, which is indicated by the red retainer ring (donor side). To the other side (receiver side), 350 µL of BupH phosphate buffered saline (pH 7.4) was added. A buffer-to-buffer assay was also performed to measure equilibrium across the membrane in the absence of plasma protein.
(§4) Propranolol was used as a positive control. All samples were prepared in triplicate. The RED device base plate was then sealed and placed in a shaking incubator set to maintain 37°C and 200 rpm for four hours.
(§5) After incubation, 100 µL of each sample was combined with an equal volume of either plasma or buffer, to create a similar matrix for all samples. Blank buffer was added to plasma samples, and vice versa. Samples from the incubation, along with the original compound-spiked plasma samples, were prepared for analysis in the same manner. Protein precipitation by addition of two parts of ice-cold acetonitrile to one part of reaction volume was carried out. To ensure complete protein precipitation samples were sealed and placed overnight at 4°C. The next morning samples were centrifuged at 3,600 rpm for 15 minutes. The supernatants (70 µL) were supplemented with an equal volume of internal standard solution (0.15 µM verapamil in water) and subjected to LC-MS/MS analysis.

[3] = Plasma protein binding (RED dialysis), rat; settings: male, Sprague Dawley, pH 7.4
Source text: as §1, §2, §3, §4, §5

Row | Compound | half-life at 1 µM [1] | fraction unbound at 4 h, 1 µM [2] | fraction unbound at 4 h, 1 µM [3]
1 | Cc1nc(N)c2c(-c3ccc(NC(=O)[C@H](O)c4cccc(F)c4)cc3C)cn(C)c2n1 [Compound 24] | 23 min | 0.006 | 0.009
2 | Cc1nc(N)c2c(-c3ccc(NC(=O)[C@H](O)c4cccc(C(F)(F)F)c4)cc3C)cn(C)c2n1 [Compound 26] | 166 min | 0.001 | 0.002
3 | Cc1nc(N)c2c(-c3ccc(NC(=O)[C@H](O)c4cccc(Cl)c4)cc3C)cn(C)c2n1 [Compound 28] | 27 min | < 0.001 | 0.003
4 | Cc1nc(N)c2c(-c3ccc(NC(=O)[C@H](O)c4cc(F)cc(F)c4)cc3C)cn(C)c2n1 [Compound 38] | 121 min | 0.008 | 0.009
5 | Cc1nc(N)c2c(-c3ccc(NC(=O)[C@H](O)c4cc(F)cc(C(F)(F)F)c4)cc3C)cn(C)c2n1 [Compound 39] | 252 min | < 0.001 | 0.001
6 | Cc1cc(F)cc([C@@H](O)C(=O)Nc2ccc(-c3cn(C)c4nc(C)nc(N)c34)c(C)c2)c1 [Compound 41] | 16 min | 0.001 | 0.005
7 | Cc1nc(N)c2c(-c3ccc(NC(=O)[C@H](O)c4cccc(Cl)c4)cc3F)cn(C)c2n1 [Compound 48] | 25 min | 0.002 | 0.004
8 | Cc1nc(N)c2c(-c3ccc(NC(=O)[C@H](O)c4cccc(F)c4)c(F)c3C)cn(C)c2n1 [Compound 65] | 22 min | 0.007 | 0.011
9 | Cc1nc(N)c2c(-c3cc(F)c(NC(=O)[C@H](O)c4cccc(F)c4)cc3C)cn(C)c2n1 [Compound 66] | 13 min | 0.012 | 0.014
10 | Cc1nc(N)c2c(-c3ccc(NC(=O)[C@H](O)c4cccc(F)c4)c(F)c3F)cn(C)c2n1 [Compound 70, (R)-N-(4-(4-amino-2,7-dimethyl-7H-pyrrolo[2,3-d]pyrimidin-5-yl)-2,3-difluorophenyl)-2-(3-fluorophenyl)-2-hydroxyacetamide] | 15 min | 0.003 | 0.007
